What was measured:
Assay type in all cases: in vivo
[1] = tested on: redroot pigweed (Amaranthus retroflexus, AMARE); assay: Pre-emerge test, greenhouse herbicide activity screening; conditions: pre-emerge, phytotoxicity rating 0-100 at 14 days after application
How it was run: (§1)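 Herbicidal damage is scored 0 (none) to 100 (complete plant death) two weeks after a simulated field spray. Rates span 15–1000 g ai/ha, delivered in acetone at 187 l/ha. For post-emergence treatments, plants have 2–3 leaves and the spray carries 0.25% v/v non-ionic surfactant.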

[2] = tested on: barnyardgrass (Echinochloa crus-galli, ECHCG); assay: as above; conditions: pre-emerge, phytotoxicity rating 0-100 at 14 days after application
How it was run: as §1

[3] = tested on: common ragweed (Ambrosia artemisizfolia L., AMBEL); assay: as above; conditions: pre-emerge, phytotoxicity rating 0-100 at 14 days after application
How it was run: as §1

[4] = tested on: green foxtail (Setaria viridis, SETVI); assay: as above; conditions: pre-emerge, phytotoxicity rating 0-100 at 14 days after application
How it was run: as §1

[5] = tested on: ivyleaf morningglory (Ipomoea hederacea, IPOHE); assay: as above; conditions: pre-emerge, phytotoxicity rating 0-100 at 14 days after application
How it was run: as §1

[6] = tested on: johnsongrass (Sorghum halepense, SORHA); assay: as above; conditions: pre-emerge, phytotoxicity rating 0-100 at 14 days after application
How it was run: as §1

[7] = tested on: lambsquarters (Chenopodium album, CHEAL); assay: as above; conditions: pre-emerge, phytotoxicity rating 0-100 at 14 days after application
How it was run: as §1

[8] = tested on: large crabgrass (Digitaria sanguinalis, DIGSA); assay: as above; conditions: pre-emerge, phytotoxicity rating 0-100 at 14 days after application
How it was run: as §1

[9] = tested on: sicklepod (Cassia obtusifolia, CASOB); assay: as above; conditions: pre-emerge, phytotoxicity rating 0-100 at 14 days after application
How it was run: as §1

[10] = tested on: velvetleaf (Abutilon theophrasti, ABUTH); assay: as above; conditions: pre-emerge, phytotoxicity rating 0-100 at 14 days after application
How it was run: as §1

[11] = tested on: field corn (Zea mays L., var. Dekalb 535, CORN); assay: Pre-emerge test, crop safety; conditions: crop damage, pre-emerge, phytotoxicity rating 0-100 at 14 days after application
How it was run: (§2)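 Fourteen days after spraying, crop and weed injury was graded visually from 0, no effect, to 100, every plant dead. Test substances were dissolved in acetone and applied at 15–1000 g ai/ha with a flat-fan nozzle. Application was either pre-emergence, one day after sowing, or post-emergence at the 2–3 leaf stage.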

[12] = tested on: upland rice (Oryza sp., var. Tebonnet, RICE); assay: Pre-emerge test, crop safety; conditions: crop damage, pre-emerge, phytotoxicity rating 0-100 at 14 days after application
How it was run: as §2

[13] = tested on: barnyardgrass (Echinochloa crus-galli, ECHCG); assay: Post-emerge test, greenhouse herbicide activity screening; conditions: post-emerge, phytotoxicity rating 0-100 at 14 days after application
How it was run: (§3)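 Compounds in acetone were track-sprayed at 187 l/ha, 15–1000 g ai/ha, onto sandy loam pots. Pre-emerge seeds were sown one day before spraying, with surface watering afterwards. Post-emerge plants were at the 2–3 leaf stage and sprayed with 0.25% v/v non-ionic surfactant. Injury was rated 0–100 at 14 days.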

[14] = tested on: green foxtail (Setaria viridis, SETVI); assay: as above; conditions: post-emerge, phytotoxicity rating 0-100 at 14 days after application
How it was run: as §3

[15] = tested on: ivyleaf morningglory (Ipomoea hederacea, IPOHE); assay: as above; conditions: post-emerge, phytotoxicity rating 0-100 at 14 days after application
How it was run: as §3

[16] = tested on: johnsongrass (Sorghum halepense, SORHA); assay: as above; conditions: post-emerge, phytotoxicity rating 0-100 at 14 days after application
How it was run: as §3

[17] = tested on: lambsquarters (Chenopodium album, CHEAL); assay: as above; conditions: post-emerge, phytotoxicity rating 0-100 at 14 days after application
How it was run: as §3

[18] = tested on: large crabgrass (Digitaria sanguinalis, DIGSA); assay: as above; conditions: post-emerge, phytotoxicity rating 0-100 at 14 days after application
How it was run: as §3

[19] = tested on: redroot pigweed (Amaranthus retroflexus, AMARE); assay: as above; conditions: post-emerge, phytotoxicity rating 0-100 at 14 days after application
How it was run: as §3

[20] = tested on: sicklepod (Cassia obtusifolia, CASOB); assay: as above; conditions: post-emerge, phytotoxicity rating 0-100 at 14 days after application
How it was run: as §3

[21] = tested on: velvetleaf (Abutilon theophrasti, ABUTH); assay: as above; conditions: post-emerge, phytotoxicity rating 0-100 at 14 days after application
How it was run: as §3

[22] = tested on: field corn (Zea mays L., var. Dekalb 535, CORN); assay: Post-emerge test, crop safety; conditions: post-emerge, crop damage rating 0-100 at 14 days after application
How it was run: as §1

[23] = tested on: upland rice (Oryza sp., var. Tebonnet, RICE); assay: Post-emerge test, crop safety; conditions: post-emerge, crop damage rating 0-100 at 14 days after application
How it was run: as §1

COc1c(Cl)cc(F)c(-n2ncc(C(F)(F)F)c(C)c2=O)c1NC(=O)c1ccc2ccccc2c1 [11-13]
98: Post-emerge Herbicidal Activity IPOHE ([15]; 63 g ai/ha) | Post-emerge Herbicidal Activity IPOHE ([15]; 250 g ai/ha)
15: Pre-emerge Herbicidal Activity RICE ([12]; rate 250 g ai/ha) | Post-emerge Herbicidal Activity SORHA ([16]; 250 g ai/ha)
60: Pre-emerge Herbicidal Activity AMBEL ([3]; rate 250 g ai/ha) | Pre-emerge Herbicidal Activity DIGSA ([8]; rate 63 g ai/ha) | Post-emerge Herbicidal Activity DIGSA ([18]; 250 g ai/ha)
80: Pre-emerge Herbicidal Activity ECHCG ([2]; rate 250 g ai/ha) | Pre-emerge Herbicidal Activity IPOHE ([5]; rate 250 g ai/ha)
100: Pre-emerge Herbicidal Activity AMARE ([1]; rate 63 g ai/ha) | Pre-emerge Herbicidal Activity SETVI ([4]; rate 250 g ai/ha) | Pre-emerge Herbicidal Activity CHEAL ([7]; rate 63 g ai/ha) | Pre-emerge Herbicidal Activity CHEAL ([7]; rate 250 g ai/ha) | Pre-emerge Herbicidal Activity DIGSA ([8]; rate 250 g ai/ha) | Pre-emerge Herbicidal Activity ABUTH ([10]; rate 250 g ai/ha) | Post-emerge Herbicidal Activity CHEAL ([17]; 63 g ai/ha) | Post-emerge Herbicidal Activity CHEAL ([17]; 250 g ai/ha) | Post-emerge Herbicidal Activity AMARE ([19]; 63 g ai/ha) | Post-emerge Herbicidal Activity AMARE ([19]; 250 g ai/ha) | Post-emerge Herbicidal Activity ABUTH ([21]; 250 g ai/ha)
85: Pre-emerge Herbicidal Activity CASOB ([9]; rate 250 g ai/ha) | Post-emerge Herbicidal Activity CASOB ([20]; 63 g ai/ha) | Post-emerge Herbicidal Activity CASOB ([20]; 250 g ai/ha)
70: Pre-emerge Herbicidal Activity SETVI ([4]; rate 63 g ai/ha)
65: Pre-emerge Herbicidal Activity IPOHE ([5]; rate 63 g ai/ha) | Post-emerge Herbicidal Activity ECHCG ([13]; 63 g ai/ha) | Post-emerge Herbicidal Activity RICE ([23]; 250 g ai/ha)
40: Pre-emerge Herbicidal Activity SORHA ([6]; rate 250 g ai/ha) | Post-emerge Herbicidal Activity SETVI ([14]; 250 g ai/ha) | Post-emerge Herbicidal Activity DIGSA ([18]; 63 g ai/ha)
95: Pre-emerge Herbicidal Activity ABUTH ([10]; rate 63 g ai/ha) | Post-emerge Herbicidal Activity ABUTH ([21]; 63 g ai/ha)
55: Post-emerge Herbicidal Activity ECHCG ([13]; 250 g ai/ha) | Post-emerge Herbicidal Activity SETVI ([14]; 63 g ai/ha)
30: Pre-emerge Herbicidal Activity ECHCG ([2]; rate 63 g ai/ha) | Pre-emerge Herbicidal Activity AMBEL ([3]; rate 63 g ai/ha)
45: Post-emerge Herbicidal Activity CORN ([22]; 63 g ai/ha) | Post-emerge Herbicidal Activity CORN ([22]; 250 g ai/ha) | Post-emerge Herbicidal Activity RICE ([23]; 63 g ai/ha)
0: Pre-emerge Herbicidal Activity SORHA ([6]; rate 63 g ai/ha) | Pre-emerge Herbicidal Activity CASOB ([9]; rate 63 g ai/ha) | Pre-emerge Herbicidal Activity CORN ([11]; rate 63 g ai/ha) | Pre-emerge Herbicidal Activity CORN ([11]; rate 250 g ai/ha) | Pre-emerge Herbicidal Activity RICE ([12]; rate 63 g ai/ha) | Post-emerge Herbicidal Activity SORHA ([16]; 63 g ai/ha)
10: Pre-emerge Herbicidal Activity AMARE ([1]; rate 250 g ai/ha)
